Assay results from ChEMBL document CHEMBL3425448, “Synthesis of hydrolysis-resistant pyridoxal 5'-phosphate analogs and their biochemical and X-ray crystallographic characterization with the pyridoxal phosphatase chronophin” (Bioorg Med Chem, 2015).

Target: T1, Chronophin (Mus musculus, UniProt P60487)
T1 sequence (P60487 whole entry): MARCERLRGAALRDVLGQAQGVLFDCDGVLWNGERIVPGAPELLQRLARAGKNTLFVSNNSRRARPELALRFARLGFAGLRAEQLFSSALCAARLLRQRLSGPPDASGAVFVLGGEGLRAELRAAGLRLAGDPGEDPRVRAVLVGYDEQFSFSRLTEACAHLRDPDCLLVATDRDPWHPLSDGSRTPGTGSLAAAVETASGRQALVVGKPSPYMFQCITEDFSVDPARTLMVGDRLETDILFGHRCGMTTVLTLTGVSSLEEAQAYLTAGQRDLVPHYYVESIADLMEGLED
Test: Inhibition of recombinant mouse brain PDXP expressed in Escherichia coli BL21 (DE3) cells assessed as pyridoxal 5' phosphate dephosphorylation preincubated for 4 mins followed by substrate addition measured after 5 mins

| IC50 [µM] | SMILES |
| --- | --- |
| 79 | Cc1ncc(CCP(=O)(O)O)c(C=O)c1O |
| 246 | Cc1ncc(/C=C/P(=O)(O)O)c(C=O)c1O |
| 1300 | Cc1ncc(CCP(=O)(O)O)c(CO)c1O |
| 1300 | Cc1ncc(/C=C/P(=O)(O)O)c(CO)c1O |
